Experimental data reported in US7868005B2, “Pyrazinyl substituted piperazine-piperidines with CXCR3 antagonist activity” (Schering Corporation, priority 2005, dated 2011).

target: T1, human CXCR3 (N-delta 4) (Homo sapiens, UniProt P49682); assay: Human CXCR3 (N-delta 4) Scintillation Proximity Assay (SPA), [125I] IP-10 binding to Ba/F3-hCXCR3 membranes; conditions: IC50 rating, Table 1; read-out: IC50
T1 construct: CD8 leader (N); Flag; expressed in transfected cells; membranes prepared
T1 sequence (P49682 5-368 limits assumed): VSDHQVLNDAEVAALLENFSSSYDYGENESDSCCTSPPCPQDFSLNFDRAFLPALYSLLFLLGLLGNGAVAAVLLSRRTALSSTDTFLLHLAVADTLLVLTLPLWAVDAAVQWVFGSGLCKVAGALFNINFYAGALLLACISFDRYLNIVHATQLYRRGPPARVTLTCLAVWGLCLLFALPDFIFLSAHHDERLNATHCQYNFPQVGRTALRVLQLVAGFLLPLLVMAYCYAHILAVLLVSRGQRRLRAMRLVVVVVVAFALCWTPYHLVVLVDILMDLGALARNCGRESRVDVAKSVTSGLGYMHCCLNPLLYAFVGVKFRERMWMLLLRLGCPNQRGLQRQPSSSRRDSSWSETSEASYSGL
Text: The inventive compounds can readily be evaluated to determine activity at the CXCR3 receptors by known methods, such as, for example, development of a human CXCR3 (N-delta 4) Binding Assay.
Cloning and Expression of Human CXCR3 (N-delta 4):
The DNA encoding human CXCR3 was cloned by PCR using human genomic DNA (Promega, Madison, Wis.) as a template. The PCR primers were designed based on the published sequence of human orphan receptor GPR9 (1) with incorporated restriction sites, a Kozak consensus sequence, CD8 leader and Flag tag. The PCR product was subcloned into the mammalian expression vector pME18Sneo, a derivative of the SR-alpha expression vector (designated as pME18Sneo-hCXCR3 (N-delta 4).
IL-3-dependent mouse pro-B cells Ba/F3 were transfected by electroporation in 0.4 ml Dulbecco's PBS containing 4×10^6 cells with 20 μg of pME18Sneo-hCXCR3 (N-delta 4) plasmid DNA. Cells were pulsed at 400 Volts, 100 OHMs, 960 μFd. The transfected cells were under selection with 1 mg/ml G418 (Life Technologies, Gaithersburg, Md.). G418-resistant Ba/F3 clones were screened for CXCR3 expression by specific binding of [^125I] IP-10 (NEN Life Science Products, Boston, Mass.).
Preparation of Ba/F3-hCXCR3 (N-delta 4) Membranes:
Ba/F3 cells expressing human CXCR3 (N-delta 4) were pelleted and resuspended in the lysis buffer containing 10 mM HEPES, pH 7.5 and Complete® protease inhibitors (1 tablet per 100 ml) (Boehringer Mannheim, Indianapolis, Ind.) at a cell density of 20×10^6 cells per ml. After 5 minute incubation on ice, cells were transferred to 4639 cell disruption bomb (Parr Instrument, Moline, Ill.) and applied with 1,500 psi of nitrogen for 30 minutes on ice. Large cellular debris was removed by centrifugation at 1,000×g. Cell membrane in the supernatant was sedimented at 100,000×g. The membrane was resuspended in the lysis buffer supplemented with 10% sucrose and stored at −80° C. Total protein concentration of the membrane was determined by BCA method from Pierce (Rockford, Ill.).
Human CXCR3 (N-delta 4) Scintillation Proximity Assay (SPA):
For each assay point, 2 μg of membrane was preincubated for 1 hr with 300 μg wheat germ agglutinin (WGA) coated SPA beads (Amersham, Arlington Heights, Ill.) in the binding buffer (50 mM HEPES, 1 mM CaCl2, 5 mM MgCl2, 125 mM NaCl, 0.002% NaN3, 1.0% BSA) at room temperature. The beads were spun down, washed once, resuspended in the binding buffer and transferred to a 96-well Isoplate (Wallac, Gaithersburg, Md.). 25 pM of [^125I] IP-10 with tested compounds in a series of titration were added to start the reaction. After 3 hr reaction at room temperature, the amount of [^125I] IP-10 bound to the SPA beads was determined with a Wallac 1450 Microbeta counter.
The Ki ratings for the various compounds of the present invention are given in the afore-mentioned Table 1. From these ratings and value ranges, it would be apparent to the skilled artisan that the compounds of the invention have excellent utility as CXCR3 receptor antagonists.

| Compound | IC50 [nM] |
| --- | --- |
| CC[C@H]1CN(c2nc(N)c(C(=O)NC3CC3)nc2Cl)CCN1C1CCN(Cc2ccc(C#N)cc2OCCN2CCCC2=O)CC1 [compound 93] | < 25 |
| C[C@@H]1CN(C2CCN(Cc3ccc(Cl)cc3F)CC2)[C@@H](C)CN1c1cnc(C(=O)NC2CC2)cn1 [compound 94] | 25 to 100 |
| CC[C@H]1CN(c2nc(N)c(C(=O)NC3CC3)nc2Cl)CCN1C1CCN(Cc2ccc(OCC(N)=O)cc2)CC1 [compound 97] | > 100 |
| CC[C@H]1CN(c2nc(N)c(C(=O)NCCOc3ccccc3)nc2Cl)CCN1C1CCN(Cc2ccc(C#N)cc2)CC1 [compound 99] | < 25 |
| CC[C@H]1CN(c2nc(N)c(C(=O)NCCS(C)(=O)=O)nc2Cl)CCN1C1CCN(Cc2ccc(Cl)cc2)CC1 [compound 100] | < 25 |
| CC[C@H]1CN(c2nc(N)c(C(=O)NCCS(C)(=O)=O)nc2Cl)CCN1C1CCN(Cc2ccc(Cl)cc2)CC1 [compound 101] | 25 to 100 |
| CCNC(=O)c1nc(Cl)c(N2CCN(C3CCN(Cc4ccc(Cl)cc4)CC3)[C@@H](CC)C2)nc1N [compound 102] | < 25 |
| CCNC(=O)c1nc(Cl)c(N2CCN(C3CCN(C(C)(C)c4ccc(Cl)cc4)CC3)[C@@H](CC)C2)nc1N [compound 104] | 25 to 100 |
| CC[C@H]1CN(c2nc(N)c(C(=O)NCC(=O)O)nc2Cl)CCN1C1CCN(Cc2ccc(Cl)cc2)CC1 [compound 105] | > 100 |
| CC[C@H]1CN(c2nc(N)c(C(=O)NCCO)nc2Cl)CCN1C1CCN(Cc2ccc(Cl)cc2/C(N)=N\O)CC1 [compound 108] | < 25 |
| CC[C@H]1CN(c2nc(N)c(C(=O)NCCO)nc2Cl)CCN1C1CCN(Cc2ccc(Cl)cc2)CC1 [compound 110] | < 25 |
| CC[C@H]1CN(c2nc(N)c(C(=O)NCCO)nc2Cl)CCN1C1CCN(Cc2ccc(Cl)cc2C(=N)N)CC1 [compound 111] | < 25 |
| CC[C@H]1CN(c2nc(N)c(C(=O)NCCO)nc2Cl)CCN1C1CCN(Cc2ccc(OC(F)(F)F)cc2)CC1 [compound 112] | < 25 |
| CC[C@H]1CN(c2nc(N)c(C(=O)NCCO)nc2Cl)CCN1C1CCN(Cc2ccc(Cl)cc2F)CC1 [compound 113] | < 25 |
| CCOC(=O)/N=C(\N)c1cc(Cl)ccc1CN1CCC(N2CCN(c3nc(N)c(C(=O)NCCO)nc3Cl)C[C@@H]2CC)CC1 [compound 114] | < 25 |
| CC[C@H]1CN(c2nc(N)c(C(=O)NCCO)nc2Cl)CCN1C1CCN(Cc2ccc(C(=O)OC)cc2)CC1 [compound 117] | < 25 |

| Compound | IC50 [nM] |
| --- | --- |
| CC[C@H]1CN(c2nc(N)c(C(=O)NCCO)nc2Cl)CCN1C1CCN(Cc2ccc(OC(F)(F)F)cc2OCCOC)CC1 [compound 118] | < 25 |
| CC[C@H]1CN(c2nc(N)c(C(=O)NCCO)nc2Cl)CCN1C1CCN(Cc2ccc(OC(F)(F)F)cc2OCCCCO)CC1 [compound 119] | < 25 |
| CC[C@H]1CN(c2nc(N)c(C(=O)NCCO)nc2Cl)CCN1C1CCN(Cc2ccc(C#N)cc2)CC1 [compound 121] | < 25 |
| CC[C@H]1CN(c2nc(N)c(C(=O)NCCO)nc2Cl)CCN1C1CCN([C@@H](CO)c2ccc(F)c(F)c2)CC1 [compound 122] | < 25 |
| CC[C@H]1CN(c2nc(N)c(C(=O)NCCO)nc2Cl)CCN1C1CCN(Cc2ccc(F)c(F)c2)CC1 [compound 123] | < 25 |
| CC[C@H]1CN(c2nc(N)c(C(=O)NCCO)nc2Cl)CCN1C1CCN(Cc2ccc(Cl)cc2OCCO)CC1 [compound 124] | < 25 |
| CC[C@H]1CN(c2nc(N)c(C(=O)NCCO)nc2Cl)CCN1C1CCN(Cc2ccc(OC(F)(F)F)cc2OCCCO)CC1 [compound 125] | < 25 |
| CC[C@H]1CN(c2nc(N)c(C(=O)NCCO)nc2Cl)CCN1C1CCN(Cc2ccc(Cl)cc2C(N)=O)CC1 [compound 127] | < 25 |
| CC[C@H]1CN(c2nc(N)c(C(=O)NCCO)nc2Cl)CCN1C1CCN(Cc2ccc(Cl)cc2OCCNS(C)(=O)=O)CC1 [compound 130] | < 25 |
| CC[C@H]1CN(c2nc(N)c(C(=O)NCCO)nc2Cl)CCN1C1CCN(Cc2ccc(Cl)cc2OCCNC(=O)NC2CCCCC2)CC1 [compound 131] | < 25 |
| CC[C@H]1CN(c2nc(N)c(C(=O)NCCO)nc2Cl)CCN1C1CCN(Cc2ccc(Cl)cc2OCCNS(=O)(=O)C(F)(F)F)CC1 [compound 132] | < 25 |
| CC[C@H]1CN(c2nc(N)c(C(=O)NCCO)nc2Cl)CCN1C1CCN(Cc2ccc(Cl)cc2OCCNS(N)(=O)=O)CC1 [compound 134] | < 25 |
| CC[C@H]1CN(c2nc(N)c(C(=O)NCCO)nc2Cl)CCN1C1CCN(Cc2ccc(Cl)cc2C#N)CC1 [compound 136] | < 25 |
| CC[C@H]1CN(c2nc(N)c(C(=O)NCCO)nc2Cl)CCN1C1CCN(Cc2ccc(Cl)cc2OCCNC(=O)NC(C)(C)C)CC1 [compound 137] | < 25 |
| CC[C@H]1CN(c2nc(N)c(C(=O)NCCO)nc2Cl)CCN1C1CCN(Cc2ccc(Cl)cc2O)CC1 [compound 138] | < 25 |
| CC[C@H]1CN(c2nc(N)c(C(=O)NCCO)nc2Cl)CCN1C1CCN(Cc2cc(F)c(Cl)cc2OCCCO)CC1 [compound 139] | < 25 |

The next lines start with the values.

| IC50 [nM] | Compound |
| --- | --- |
| 25 to 100 | CC[C@H]1CN(c2nc(N)c(C(=O)NC3CC3)nc2Cl)CCN1C1CCN(Cc2ccc(Cl)cc2)CC1O (stereo partly drawn) [compound 95] |
| > 100 | CC[C@H]1CN(c2nc(N)c(C(=O)NC3CC3)nc2Cl)CCN1C1CCN(C(CCNC(=O)OC(C)(C)C)c2ccc(Cl)cc2)CC1 (stereo partly drawn) [compound 96] |
| > 100 | CC[C@H]1CN(c2nc(N)c(C(=O)NC3CC3)nc2Cl)CCN1C1CCN(Cc2ccc(Cl)cc2)CC1O (stereo partly drawn) [compound 98] |
| < 25 | CCNC(=O)c1nc(Cl)c(N2CCN(C3CCN(Cc4ccc(Cl)cc4F)CC3)[C@@H](CC)C2)nc1N [compound 103] |
| > 100 | CCNC(=O)c1nc(Cl)c(N2CCN(C3CCN(C(C)(C)c4ccc(Cl)cc4)CC3)[C@@H](C)C2)nc1N [compound 106] |
| < 25 | CC[C@H]1CN(c2nc(N)c(C(=O)NCCO)nc2Cl)CCN1C1CCN(Cc2ccc(Cl)cc2CO)CC1 [compound 107] |
| < 25 | CC[C@H]1CN(c2nc(N)c(C(=O)NCCO)nc2Cl)CCN1C1CCN([C@@H](CO)c2ccc(Cl)cc2)CC1 [compound 109] |
| < 25 | CC[C@H]1CN(c2nc(N)c(C(=O)NCCO)nc2Cl)CCN1C1CCN(Cc2ccc(Cl)cc2OCCOC)CC1 [compound 115] |
| < 25 | CC[C@H]1CN(c2nc(N)c(C(=O)NCCO)nc2Cl)CCN1C1CCN([C@@H](CO)c2ccc(C#N)cc2)CC1 [compound 116] |
| < 25 | CC[C@H]1CN(c2nc(N)c(C(=O)NCCO)nc2Cl)CCN1C1CCN(Cc2ccc(Cl)cc2OCCNC(=O)OC(C)(C)C)CC1 [compound 120] |
| < 25 | CC[C@H]1CN(c2nc(N)c(C(=O)NCCO)nc2Cl)CCN1C1CCN(Cc2ccc(OC)cc2)CC1 [compound 126] |
| < 25 | CC[C@H]1CN(c2nc(N)c(C(=O)NCCO)nc2Cl)CCN1C1CCN([C@H](CO)c2ccc(Cl)cc2)CC1 [compound 128] |
| < 25 | CC[C@H]1CN(c2nc(N)c(C(=O)NCCO)nc2Cl)CCN1C1CCN(Cc2ccc(Cl)cc2OCCNC(=O)C(C)(C)C)CC1 [compound 129] |
| < 25 | CC[C@H]1CN(c2nc(N)c(C(=O)NCCO)nc2Cl)CCN1C1CCN(Cc2ccc(F)cc2)CC1 [compound 133] |
| < 25 | CC[C@H]1CN(c2nc(N)c(C(=O)NCCO)nc2Cl)CCN1C1CCN(Cc2ccc(F)c(F)c2N2CC[C@@H](O)C2)CC1 [compound 135] |

same assay, conditions: read-out: IC50

| IC50 [nM] | Compound |
| --- | --- |
| 0.2 | CC[C@H]1CN(c2nc(N)c(C(=O)NCCO)nc2Cl)CCN1C1CCN(Cc2ccc(Cl)cc2CO)CC1 [compound 107] |
